Measured values from patent EP3046573B1, “AMYLIN ANALOGUES” (Zealand Pharma A/S, priority 2013, dated 2015).
Numbered stars: 1 amine (or outer) side, 2 acyl side, 3 side chain; on linkers, the order of the positions; unused ones are H or OH. Bridge positions count the residues as written; N and C are the ends. Square brackets hold non-standard residues; d marks the D form. Peptide text beside a SMILES is read from it. * marks the point of attachment. C20 diacid = O=C(O)CCCCCCCCCCCCCCCCCCC(=O)*; γGlu = O=C(O)[C@H](CCC(=O)[*:2])N[*:1]; NMeI = CC[C@H](C)[C@H](NC)C(=O)O; Sar = CNCC(=O)O

Key:
[1] = target: T1, human calcitonin receptor (hCTR2) (Homo sapiens, UniProt P30988); assay: hCTR2 assay: induction of cAMP (AlphaScreen cAMP Assay kit) in COS7 cells expressing hCTR2; assay type: cell-based; conditions: cAMP induction in COS7 cells expressing hCTR2; average of a minimum of 3 determinations; read-out: hCTR2 EC50
T1 construct: expressed in transfected cells
T1 sequence (P30988 25-474): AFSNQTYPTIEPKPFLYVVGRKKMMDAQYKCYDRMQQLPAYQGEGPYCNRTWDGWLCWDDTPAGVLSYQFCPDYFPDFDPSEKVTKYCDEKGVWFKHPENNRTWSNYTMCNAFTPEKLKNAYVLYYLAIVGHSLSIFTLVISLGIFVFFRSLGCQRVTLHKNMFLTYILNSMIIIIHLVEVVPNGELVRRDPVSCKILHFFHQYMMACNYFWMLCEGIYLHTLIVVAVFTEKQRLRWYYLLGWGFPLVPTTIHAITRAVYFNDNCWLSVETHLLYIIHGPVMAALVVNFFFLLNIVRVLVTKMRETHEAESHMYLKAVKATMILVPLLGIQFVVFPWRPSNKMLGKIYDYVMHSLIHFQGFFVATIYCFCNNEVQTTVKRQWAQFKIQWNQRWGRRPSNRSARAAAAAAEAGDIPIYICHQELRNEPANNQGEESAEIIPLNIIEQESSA
In short: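 cAMP read-out by AlphaScreen after cell lysis; EC50 and % efficacy vs pramlintide from 4-parameter logistic fitting. Agonist stimulation: hCTR2-COS7 stable cells, 15 min, 37° C, 100 µM IBMX, 0.1% casein, Tyrode/HEPES pH 7.4.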

[2] = Solubility assessment (turbidity absorbance at 325 nm); assay type: physicochemical; conditions: stock 2 mg/ml diluted 1:1, ambient temperature (typically 25°C), n=1; for Solubility, Acetate buffer pH 4: 100 mM acetate buffer pH 4.0; for Solubility, Acetate buffer pH 5: 100 mM acetate buffer pH 5.0; for Solubility, Histidine buffer pH 6: 100 mM histidine buffer pH 6.0; for Solubility, Histidine buffer pH 7: 100 mM histidine buffer pH 7.0; for Solubility, Phosphate buffer pH 6: 100 mM phosphate buffer pH 6.0; for Solubility, Phosphate buffer pH 7: 100 mM phosphate buffer pH 7.0; for Solubility, Phosphate buffer pH 7.5: 100 mM phosphate buffer pH7.5
In short: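 Turbidity read as absorbance at 325 nm (also 280 nm), single samples at ambient temperature (typically 25°C); ≤ 0.02 units counts as ≥ 1 mg/ml soluble. Samples made by 1:1 dilution of a 2 mg/ml acidic stock into 100 mM acetate, histidine or phosphate buffers, pH 4.0–7.5.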

SMILES | EC50 [1] | Solubility, Acetate buffer pH 4 [2] | Solubility, Acetate buffer pH 5 [2] | Solubility, Histidine buffer pH 6 [2] | Solubility, Histidine buffer pH 7 [2] | Solubility, Phosphate buffer pH 6 [2] | Solubility, Phosphate buffer pH 7 [2] | Solubility, Phosphate buffer pH 7.5 [2]
CC[C@H](C)[C@@H](C(=O)N[C@@H](CC(C)C)C(=O)N[C@@H](CO)C(=O)N[C@@H](CO)C(=O)N[C@H](C(=O)N[C@@H](CC(N)=O)C(=O)N[C@H](C(=O)NCC(=O)N[C@@H](CO)C(=O)N[C@@H](CC(N)=O)C(=O)N[C@H](C(=O)N1CCC[C@H]1C(N)=O)[C@@H](C)O)C(C)C)[C@@H](C)O)N(C)C(=O)[C@H](C)NC(=O)[C@H](Cc1ccccc1)NC(=O)[C@H](CC(N)=O)NC(=O)[C@H](CC(N)=O)NC(=O)[C@H](CO)NC(=O)[C@H](CO)NC(=O)[C@H](Cc1c[nH]cn1)NC(=O)[C@H](Cc1c[nH]cn1)NC(=O)[C@H](CC(C)C)NC(=O)[C@H](Cc1ccccc1)NC(=O)[C@H](CCC(=O)O)NC(=O)[C@H](C)NC(=O)[C@H](CC(C)C)NC(=O)[C@H](CCCNC(=N)N)NC(=O)[C@H](CCC(N)=O)NC(=O)[C@@H](NC(=O)[C@H](C)NC(=O)[C@@H]1CSSC[C@H](NC(=O)[C@H](CCCNC(=N)N)NC(=O)CC[C@H](NC(=O)CCCCCCCCCCCCCCCCCCC(=O)O)C(=O)O)C(=O)N[C@@H](CC(N)=O)C(=O)N[C@@H]([C@@H](C)O)C(=O)N[C@@H](C)C(=O)N[C@@H]([C@@H](C)O)C(=O)N1)[C@@H](C)O [Compound 49, [19CD]-isoGlu-RC()NTATC()ATQRLAEFLHHSSNNFA-Ile(Me)-LSSTNVGSNTP-NH2] ({C20 diacid-γGlu}-RCNTATCATQRLAEFLHHSSNNFA[NMeI]LSSTNVGSNTP-NH2; disulfide 2-7) | 0.14 nM | II (II indicates solubility ≤ 1 mg/ml) | II (II indicates solubility ≤ 1 mg/ml) | II (II indicates solubility ≤ 1 mg/ml) | II (II indicates solubility ≤ 1 mg/ml) | II (II indicates solubility ≤ 1 mg/ml) | II (II indicates solubility ≤ 1 mg/ml) | II (II indicates solubility ≤ 1 mg/ml)
CC[C@H](C)[C@@H](C(=O)N[C@@H](CC(C)C)C(=O)N[C@@H](CO)C(=O)N[C@@H](CO)C(=O)N[C@H](C(=O)N[C@@H](CC(N)=O)C(=O)N[C@H](C(=O)NCC(=O)N[C@@H](CO)C(=O)N[C@@H](CC(N)=O)C(=O)N[C@H](C(=O)N1CCC[C@H]1C(N)=O)[C@@H](C)O)C(C)C)[C@@H](C)O)N(C)C(=O)[C@H](C)NC(=O)CN(C)C(=O)[C@H](CC(N)=O)NC(=O)[C@H](CC(N)=O)NC(=O)[C@H](CO)NC(=O)[C@H](CO)NC(=O)[C@H](Cc1c[nH]cn1)NC(=O)[C@H](Cc1c[nH]cn1)NC(=O)[C@H](CC(C)C)NC(=O)[C@H](Cc1ccccc1)NC(=O)[C@H](CCC(=O)O)NC(=O)[C@H](C)NC(=O)[C@H](CC(C)C)NC(=O)[C@H](CCCNC(=N)N)NC(=O)[C@H](CCC(N)=O)NC(=O)[C@@H](NC(=O)[C@H](C)NC(=O)[C@@H]1CSSC[C@H](NC(=O)[C@H](CCCNC(=N)N)NC(=O)CC[C@H](NC(=O)CCCCCCCCCCCCCCCCCCC(=O)O)C(=O)O)C(=O)N[C@@H](CC(N)=O)C(=O)N[C@@H]([C@@H](C)O)C(=O)N[C@@H](C)C(=O)N[C@@H]([C@@H](C)O)C(=O)N1)[C@@H](C)O [Compound 50, [19CD]-isoGlu-RC()NTATC()ATQRLAEFLHHSSNN-Gly(Me)-A-Ile(Me)-LSSTNVGSNTP-NH2] ({C20 diacid-γGlu}-RCNTATCATQRLAEFLHHSSNN[Sar]A[NMeI]LSSTNVGSNTP-NH2; disulfide 2-7) | 0.14 nM | SS (SS indicates solubility ≥ 1mg/ml) | SS (SS indicates solubility ≥ 1mg/ml) | SS (SS indicates solubility ≥ 1mg/ml) | SS (SS indicates solubility ≥ 1mg/ml) | SS (SS indicates solubility ≥ 1mg/ml) | SS (SS indicates solubility ≥ 1mg/ml) | SS (SS indicates solubility ≥ 1mg/ml)
CC[C@H](C)[C@@H](C(=O)N[C@@H](CC(C)C)C(=O)N[C@@H](CO)C(=O)N[C@@H](CO)C(=O)N[C@H](C(=O)N[C@@H](CC(N)=O)C(=O)N[C@H](C(=O)NCC(=O)N[C@@H](CO)C(=O)N[C@@H](CC(N)=O)C(=O)N[C@H](C(=O)N1CCC[C@H]1C(N)=O)[C@@H](C)O)C(C)C)[C@@H](C)O)N(C)C(=O)CN(C)C(=O)[C@H](CC(N)=O)NC(=O)[C@H](CC(N)=O)NC(=O)[C@H](CO)NC(=O)[C@H](CO)NC(=O)[C@H](Cc1c[nH]cn1)NC(=O)[C@H](Cc1c[nH]cn1)NC(=O)[C@H](CC(C)C)NC(=O)[C@H](Cc1ccccc1)NC(=O)[C@H](CCC(=O)O)NC(=O)[C@H](C)NC(=O)[C@H](CC(C)C)NC(=O)[C@H](CCCNC(=N)N)NC(=O)[C@H](CCC(N)=O)NC(=O)[C@@H](NC(=O)[C@H](C)NC(=O)[C@@H]1CSSC[C@H](NC(=O)[C@H](CCCNC(=N)N)NC(=O)CC[C@H](NC(=O)CCCCCCCCCCCCCCCCCCC(=O)O)C(=O)O)C(=O)N[C@@H](CC(N)=O)C(=O)N[C@@H]([C@@H](C)O)C(=O)N[C@@H](C)C(=O)N[C@@H]([C@@H](C)O)C(=O)N1)[C@@H](C)O [Compound 51, [19CD]-isoGlu-RC()NTATC()ATQRLAEFLHHSSNN-Gly(Me)-Ile(Me)-LSSTNVGSNTP-NH2] ({C20 diacid-γGlu}-RCNTATCATQRLAEFLHHSSNN[Sar][NMeI]LSSTNVGSNTP-NH2; disulfide 2-7) | 0.093 nM | II (II indicates solubility ≤ 1 mg/ml) | II (II indicates solubility ≤ 1 mg/ml) | II (II indicates solubility ≤ 1 mg/ml) | II (II indicates solubility ≤ 1 mg/ml) | II (II indicates solubility ≤ 1 mg/ml) | II (II indicates solubility ≤ 1 mg/ml) | II (II indicates solubility ≤ 1 mg/ml)
CC[C@H](C)[C@@H](C(=O)N[C@@H](CC(C)C)C(=O)N[C@@H](CO)C(=O)N[C@@H](CO)C(=O)N[C@H](C(=O)N[C@@H](CC(N)=O)C(=O)N[C@H](C(=O)NCC(=O)N[C@@H](CO)C(=O)N[C@@H](CC(N)=O)C(=O)N[C@H](C(=O)N1CCC[C@H]1C(N)=O)[C@@H](C)O)C(C)C)[C@@H](C)O)N(C)C(=O)[C@H](C)NC(=O)CN(C)C(=O)[C@H](Cc1ccccc1)NC(=O)[C@H](CO)NC(=O)[C@H](CO)NC(=O)[C@H](Cc1c[nH]cn1)NC(=O)[C@H](Cc1c[nH]cn1)NC(=O)[C@H](CC(C)C)NC(=O)[C@H](Cc1ccccc1)NC(=O)[C@H](CCC(=O)O)NC(=O)[C@H](C)NC(=O)[C@H](CC(C)C)NC(=O)[C@H](CCCNC(=N)N)NC(=O)[C@H](CCC(N)=O)NC(=O)[C@@H](NC(=O)[C@H](C)NC(=O)[C@@H]1CSSC[C@H](NC(=O)[C@H](CCCNC(=N)N)NC(=O)CC[C@H](NC(=O)CCCCCCCCCCCCCCCCCCC(=O)O)C(=O)O)C(=O)N[C@@H](CC(N)=O)C(=O)N[C@@H]([C@@H](C)O)C(=O)N[C@@H](C)C(=O)N[C@@H]([C@@H](C)O)C(=O)N1)[C@@H](C)O [Compound 52, [19CD]-isoGlu-RC()NTATC()ATQRLAEFLHHSSF-Gly(Me)-A-Ile(Me)-LSSTNVGSNTP-NH2] ({C20 diacid-γGlu}-RCNTATCATQRLAEFLHHSSF[Sar]A[NMeI]LSSTNVGSNTP-NH2; disulfide 2-7) | 0.076 nM | SS (SS indicates solubility ≥ 1mg/ml) | SS (SS indicates solubility ≥ 1mg/ml) | SS (SS indicates solubility ≥ 1mg/ml) | SS (SS indicates solubility ≥ 1mg/ml) | SS (SS indicates solubility ≥ 1mg/ml) | SS (SS indicates solubility ≥ 1mg/ml) | SS (SS indicates solubility ≥ 1mg/ml)
